Here are results for 33 compounds from patent US20130123215A1, “2,5-DIOXOIMIDAZOLIDIN-1-YL-3-PHENYLUREA DERIVATIVES AS FORMYL PEPTIDE RECEPTOR LIKE-1 (FPRL-1) RECEPTOR MODULATORS” (ALLERGAN, INC., priority 2011, published 2013).

Molecules are shown by their SMILES. Bounds are passed on as bounds.

In general, EC50 refers to the concentration that produces a half-maximal response.

The experiment concerns the target T1, FPRL-1 (Homo sapiens, UniProt P25090).
T1 construct: expressed in transfected cells; host or cells: CHO-Gα16 cells stably expressing FPRL1
T1 sequence (P25090 1-351): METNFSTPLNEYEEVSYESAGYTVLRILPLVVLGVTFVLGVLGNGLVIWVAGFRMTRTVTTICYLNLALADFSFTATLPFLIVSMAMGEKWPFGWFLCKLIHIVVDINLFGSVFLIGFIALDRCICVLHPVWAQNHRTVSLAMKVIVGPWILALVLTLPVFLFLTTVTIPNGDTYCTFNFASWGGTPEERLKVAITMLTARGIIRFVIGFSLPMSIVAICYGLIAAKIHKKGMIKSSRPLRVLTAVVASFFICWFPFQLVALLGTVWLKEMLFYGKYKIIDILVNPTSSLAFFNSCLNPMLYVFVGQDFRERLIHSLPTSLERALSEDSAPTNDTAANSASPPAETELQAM
Nature of the experiment: FPRL-1 Ga16-CHO compound-induced calcium activity (FLIPR Tetra). The experiment is classed as cell-based. To be noted: CHO-Gα16 cells stably expressing FPRL1; calcium activity on FLIPR Tetra; tested at 0.61 to 10,000 nM; read-out: FPRL-1 Ga16-CHO EC50. The procedure:
HEK-Gα16 and CHO-Gα16 cells stably expressing FPRL1 were cultured in (F12, 10% FBS, 1% PSA, 400 μg/ml geneticin and 50 μg/ml hygromycin) and HEK-Gqi5 cells stable expressing FPR1 were cultured in (DMEM high glucose, 10% FBS, 1% PSA, 400 μg/ml geneticin and 50 μg/ml hygromycin). In general, the day before the experiment, 18,000 cells/well were plated in a 384-well clear bottom poly-d-lysine coated plate. The following day the screening compound-induced calcium activity was assayed on the FLIPR^Tetra. The drug plates were prepared in 384-well microplates using the EP3 and the MultiPROBE robotic liquid handling systems. Compounds were tested at concentrations ranging from 0.61 to 10,000 nM. Results are expressed as EC50 (nM) and efficacy values.
Take `CC(C)C1(CC(=O)NC(CO)CO)NC(=O)N(NC(=O)Nc2ccc(Br)cc2)C1=O` (stereo not drawn) [2-[1-{[(4-Bromophenyl)carbamoyl]amino}-2,5-dioxo-4-(propan-2-yl)imidazolidin-4-yl]-N-(1,3-dihydroxypropan-2-yl)acetamide]: the EC50 was 16.2 nM.
The value for `CCc1ccc2[nH]c(C3(C)NC(=O)N(c4ccc(Br)cc4)C3=O)cc2c1` (stereo not drawn) [3-(4-Bromophenyl)-5-(5-ethyl-1H-indol-2-yl)-5-methylimidazolidine-2,4-dione] was 2590 nM.
With `CCC1(CC)NC(=O)N(NC(=O)Nc2ccc(Br)cc2)C1=O` [Compound 1, 1-(4-Bromophenyl)-3-(4,4-diethyl-2,5-dioxoimidazolidin-1-yl)urea] the figure was 9.1 nM; with `CCC1(CC)NC(=O)N(NC(=O)Nc2ccc(Cl)cc2)C1=O` [Compound 2, 1-(4-Chlorophenyl)-3-(4,4-diethyl-2,5-dioxoimidazolidin-1-yl)urea], 27 nM; with `CCC1(CC)NC(=O)N(NC(=O)Nc2ccc(OC)cc2)C1=O` [Compound 3, 1-(4-Methoxyphenyl)-3-(4,4-diethyl-2,5-dioxoimidazolidin-1-yl)urea], 194 nM.
Regarding `CCc1ccc(NC(=O)NN2C(=O)NC(CC)(CC)C2=O)cc1` [Compound 4, 1-(4-Ethylphenyl)-3-(4,4-diethyl-2,5-dioxoimidazolidin-1-yl)urea], the half-maximal effective concentration (EC50) is 125 nM.
The value for `CCC1(CC)NC(=O)N(NC(=O)Nc2ccc(C#N)cc2)C1=O` [Compound 5, 1-(4-Cyanophenyl)-3-(4,4-diethyl-2,5-dioxoimidazolidin-1-yl)urea] was 1230 nM; that for `CCC1(CC)NC(=O)N(NC(=O)Nc2ccc(Br)cc2F)C1=O` [Compound 6, 1-(4-Bromo-2-fluorophenyl)-3-(4,4-diethyl-2,5-dioxoimidazolidin-1-yl)urea] was 15.6 nM.
The value for `CCC1(CC)NC(=O)N(NC(=O)Nc2ccc(C)cc2)C1=O` [Compound 7, 1-(4-Methylphenyl)-3-(4,4-diethyl-2,5-dioxoimidazolidin-1-yl)urea] was 96 nM; that for `CCC1(CC)NC(=O)N(NC(=O)Nc2ccc(SC)cc2)C1=O` [Compound 8, 1-(4-Methylthiophenyl)-3-(4,4-diethyl-2,5-dioxoimidazolidin-1-yl)urea] was 37.1 nM.
The value for `O=C(Nc1ccc(Br)cc1F)NN1C(=O)NC2(CCCC2)C1=O` [Compound 11, 1-(4-Bromo-2-fluorophenyl)-3-(2,4-dioxo-1,3-diazaspiro[4.4]nonan-3-yl)urea] was 23.9 nM.
As to `CC1(C)NC(=O)N(NC(=O)Nc2ccc(Br)cc2)C1=O` [Compound 12, 1-(4-Bromophenyl)-3-(4,4-dimethyl-2,5-dioxoimidazolidin-1-yl)urea], the EC50 was 74.9 nM.
The value for `O=C(Nc1ccc(Br)cc1)NN1C(=O)NC2(Cc3ccccc3C2)C1=O` [Compound 13, 1-(4-Bromophenyl)-3-(2,5-dioxo-1′,3′-dihydrospiro[imidazolidine-4,2′-inden]-1-yl)urea] was 47 nM; that for `O=C(Nc1ccc(Br)cc1)NN1C(=O)NC2(CCCCC2)C1=O` [Compound 14, 1-(4-Bromophenyl)-3-(2,4-dioxo-1,3-diazaspiro[4.5]decan-3-yl)urea] was 13.6 nM; that for `O=C(Nc1ccc(Br)cc1F)NN1C(=O)NC2(CCCCC2)C1=O` [Compound 15, 1-(4-Bromo-2-fluorophenyl)-3-(2,4-dioxo-1,3-diazaspiro[4.5]decan-3-yl)urea] was 233 nM.
Turning to `CCC1(CC)NC(=O)N(NC(=O)Nc2ccc(Cl)cc2F)C1=O` [Compound 16, 1-(4-Chloro-2-fluorophenyl)-3-(4,4-diethyl-2,5-dioxoimidazolidin-1-yl)urea], the concentration for a half-maximal effect (EC50) came to 39 nM.
The value for `CC1(CCc2ccccc2)NC(=O)N(NC(=O)Nc2ccc(Br)cc2F)C1=O` (stereo not drawn) [Compound 17, 1-(4-Bromo-2-fluorophenyl)-3-(4-methyl-2,5-dioxo-4-phenethylimidazolidin-1-yl)urea] was 61 nM; that for `CCC1(CC)NC(=O)N(NC(=O)Nc2ccc(Cl)c(F)c2)C1=O` [Compound 19, 1-(4-Chloro-3-fluorophenyl)-3-(4,4-diethyl-2,5-dioxoimidazolidin-1-yl)urea] was 149 nM.
As for `CCC1(C(C)C)NC(=O)N(NC(=O)Nc2ccc(Br)cc2F)C1=O` (stereo not drawn) [Compound 20, 1-(4-Bromo-2-fluorophenyl)-3-(4-ethyl-4-isopropyl-2,5-dioxoimidazolidin-1-yl)urea], the EC50 is 6.3 nM.
Regarding `CC1(COc2ccccc2)NC(=O)N(NC(=O)Nc2ccc(Br)cc2)C1=O` (stereo not drawn) [Compound 25, 1-(4-Bromophenyl)-3-(4-methyl-2,5-dioxo-4-(phenoxymethyl)imidazolidin-1-yl)urea], the half-maximal effective concentration (EC50) was found to be 22.1 nM.
The value for `O=C(Nc1ccc(Br)cc1F)NN1C(=O)NC2(CCc3ccccc3C2)C1=O` (stereo not drawn) [Compound 26] was 191 nM; that for `O=C(Nc1ccc(Br)cc1)NN1C(=O)NC2(CCc3ccccc3C2)C1=O` (stereo not drawn) [Compound 27, 1-(4-Bromophenyl)-3-(2,5-dioxo-3′,4′-dihydro-1H,1′H-spiro[imidazolidine-4,2′-naphthalen]-1-yl)urea] was 53.5 nM; that for `CC1(COc2ccccc2)NC(=O)N(NC(=O)Nc2ccc(Br)cc2F)C1=O` (stereo not drawn) [Compound 28, 1-(4-Bromo-2-fluorophenyl)-3-(4-methyl-2,5-dioxo-4-(phenoxymethyl)imidazolidin-1-yl)urea] was 52.1 nM.
The value for `CCC1(CCc2ccccc2)NC(=O)N(NC(=O)Nc2ccc(Br)cc2F)C1=O` (stereo not drawn) [Compound 29, 1-(4-Bromo-2-fluorophenyl)-3-(4-ethyl-2,5-dioxo-4-(phenethyl)imidazolidin-1-yl)urea] was less than 2 nM; that for `CCC1(CCc2ccccc2)NC(=O)N(NC(=O)Nc2ccc(Br)cc2)C1=O` (stereo not drawn) [Compound 30, 1-(4-Bromophenyl)-3-(4-ethyl-2,5-dioxo-4-(phenethyl)imidazolidin-1-yl)urea] was 0.5 nM.
With `CC(C)CC1(CCc2ccccc2)NC(=O)N(NC(=O)Nc2ccc(Br)cc2)C1=O` (stereo not drawn) [Compound 31] the figure was 86.4 nM; with `CC(C)CC1(CCc2ccccc2)NC(=O)N(NC(=O)Nc2ccc(Br)cc2F)C1=O` (stereo not drawn) [Compound 32], 105 nM; with `CC1(CCc2ccc(Cl)cc2)NC(=O)N(NC(=O)Nc2ccc(Br)cc2)C1=O` (stereo not drawn) [Compound 33, 1-(4-Bromophenyl)-3-(4-(4-chlorophenethyl)-4-methyl-2,5-dioxoimidazolidin-1-yl)urea], 333 nM.
Regarding `CC1(CCc2ccc(Cl)cc2)NC(=O)N(NC(=O)Nc2ccc(Br)cc2F)C1=O` (stereo not drawn) [Compound 34], the 50% effective concentration (EC50) stood at 1380 nM.
Consider `CC1(CCc2ccco2)NC(=O)N(NC(=O)Nc2ccc(Br)cc2)C1=O` (stereo not drawn) [Compound 35], for which the EC50 amounted to 6.9 nM.
With `CC1(CCc2ccco2)NC(=O)N(NC(=O)Nc2ccc(Br)cc2F)C1=O` (stereo not drawn) [Compound 36] the figure was 39.8 nM; with `CC1(CCc2ccccc2F)NC(=O)N(NC(=O)Nc2ccc(Br)cc2)C1=O` (stereo not drawn) [Compound 37, 1-(4-Bromophenyl)-3-(4-(2-fluorophenethyl)-4-methyl-2,5-dioxoimidazolidin-1-yl)urea], 14 nM; with `CC1(CCc2ccccc2F)NC(=O)N(NC(=O)Nc2ccc(Br)cc2F)C1=O` (stereo not drawn) [Compound 38, 1-(4-Bromo-2-fluorophenyl)-3-(4-(2-fluorophenethyl)-4-methyl-2,5-dioxoimidazolidin-1-yl)urea], 56.2 nM.
